Measured values as given in article PMC6556873, “Rapid Covalent-Probe Discovery by Electrophile-Fragment Screening” (Journal of the American Chemical Society, 2019).
Like-named read-outs stand apart in the source and are kept apart here.

How the values were obtained:
BSA = biological target: T1, BSA (Bos taurus, UniProt P02769); set-up: Intact protein LC/MS covalent labelling, fragments in pools of five, 200 uM each, 4 °C; conditions: 24 h, 4 °C, pool of five; 200 µM; covalent
T1 construct: gene ALB
T1 sequence (P02769 whole entry, the tested form may be a part): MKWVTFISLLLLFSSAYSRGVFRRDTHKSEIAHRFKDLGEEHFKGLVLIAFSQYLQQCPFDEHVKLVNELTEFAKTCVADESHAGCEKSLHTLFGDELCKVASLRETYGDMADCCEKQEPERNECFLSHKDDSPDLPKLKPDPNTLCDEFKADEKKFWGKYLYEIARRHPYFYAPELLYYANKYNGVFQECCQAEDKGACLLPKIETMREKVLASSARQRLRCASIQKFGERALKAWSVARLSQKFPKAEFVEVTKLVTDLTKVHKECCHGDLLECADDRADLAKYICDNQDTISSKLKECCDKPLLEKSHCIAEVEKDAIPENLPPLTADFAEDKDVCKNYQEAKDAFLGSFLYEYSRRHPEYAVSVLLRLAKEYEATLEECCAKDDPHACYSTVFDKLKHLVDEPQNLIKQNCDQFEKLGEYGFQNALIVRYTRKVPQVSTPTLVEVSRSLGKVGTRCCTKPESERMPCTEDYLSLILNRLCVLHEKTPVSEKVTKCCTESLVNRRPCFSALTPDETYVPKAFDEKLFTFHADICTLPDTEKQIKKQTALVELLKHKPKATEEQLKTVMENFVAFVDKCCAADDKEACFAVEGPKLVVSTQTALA

NNMT (hNNMT) = biological target: T2, NNMT (hNNMT) (Homo sapiens, UniProt P40261); set-up: Intact protein LC/MS covalent labelling, fragments in pools of five, 200 uM each, 4 °C; conditions: 24 h, 4 °C, pool of five; 200 µM; covalent
T2 construct: wild type, N-terminal His6 tag kept (no cleavage described), E. coli, construct 31248 Da
T2 sequence (P40261 1-264): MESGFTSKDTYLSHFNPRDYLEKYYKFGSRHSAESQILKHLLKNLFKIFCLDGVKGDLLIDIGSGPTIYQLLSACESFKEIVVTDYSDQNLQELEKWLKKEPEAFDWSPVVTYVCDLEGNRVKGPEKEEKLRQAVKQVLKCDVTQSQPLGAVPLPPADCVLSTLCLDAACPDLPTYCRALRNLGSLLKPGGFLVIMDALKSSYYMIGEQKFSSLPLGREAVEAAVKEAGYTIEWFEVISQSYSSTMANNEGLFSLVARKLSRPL

NUDT7 = biological target: T3, NUDT7 (Homo sapiens, UniProt P0C024); set-up: Intact protein LC/MS covalent labelling, fragments in pools of five, 200 uM each, 4 °C; conditions: 24 h, 4 °C, pool of five; 200 µM; covalent
T3 construct: residues 14-235, E. coli, pNIC28-Bsa4, N-terminal His6 tag removed by TEV, construct 26672 Da
T3 sequence (P0C024 14-235): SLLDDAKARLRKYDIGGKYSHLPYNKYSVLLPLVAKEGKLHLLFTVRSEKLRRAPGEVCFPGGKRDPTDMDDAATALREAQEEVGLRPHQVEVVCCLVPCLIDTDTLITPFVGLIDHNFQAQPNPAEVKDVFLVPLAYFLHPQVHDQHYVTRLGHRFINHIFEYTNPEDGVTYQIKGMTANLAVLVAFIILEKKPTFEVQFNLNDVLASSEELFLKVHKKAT

OTUB2 (OTUB2A) = biological target: T4, OTUB2 (OTUB2A) (Homo sapiens, UniProt Q96DC9); set-up: Intact protein LC/MS covalent labelling, fragments in pools of five, 200 uM each, 4 °C; conditions: 24 h, 4 °C, pool of five; 200 µM; covalent
T4 construct: full length residues 1-234, E. coli BL21(DE3)-R3, His tag removed by TEV, construct 27312 Da
T4 sequence (Q96DC9 1-234): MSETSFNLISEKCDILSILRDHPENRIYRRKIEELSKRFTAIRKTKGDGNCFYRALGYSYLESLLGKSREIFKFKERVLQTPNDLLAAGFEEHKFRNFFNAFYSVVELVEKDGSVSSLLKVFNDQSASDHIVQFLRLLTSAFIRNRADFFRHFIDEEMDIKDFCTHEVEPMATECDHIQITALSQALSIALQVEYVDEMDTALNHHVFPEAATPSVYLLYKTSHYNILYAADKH

PCAF = biological target: T5, PCAF (Homo sapiens, UniProt Q92831); set-up: Intact protein LC/MS covalent labelling, fragments in pools of five, 200 uM each, 4 °C; conditions: 24 h, 4 °C, pool of five; 200 µM; covalent
T5 construct: gene KAT2B
T5 sequence (Q92831 whole entry, the tested form may be a part): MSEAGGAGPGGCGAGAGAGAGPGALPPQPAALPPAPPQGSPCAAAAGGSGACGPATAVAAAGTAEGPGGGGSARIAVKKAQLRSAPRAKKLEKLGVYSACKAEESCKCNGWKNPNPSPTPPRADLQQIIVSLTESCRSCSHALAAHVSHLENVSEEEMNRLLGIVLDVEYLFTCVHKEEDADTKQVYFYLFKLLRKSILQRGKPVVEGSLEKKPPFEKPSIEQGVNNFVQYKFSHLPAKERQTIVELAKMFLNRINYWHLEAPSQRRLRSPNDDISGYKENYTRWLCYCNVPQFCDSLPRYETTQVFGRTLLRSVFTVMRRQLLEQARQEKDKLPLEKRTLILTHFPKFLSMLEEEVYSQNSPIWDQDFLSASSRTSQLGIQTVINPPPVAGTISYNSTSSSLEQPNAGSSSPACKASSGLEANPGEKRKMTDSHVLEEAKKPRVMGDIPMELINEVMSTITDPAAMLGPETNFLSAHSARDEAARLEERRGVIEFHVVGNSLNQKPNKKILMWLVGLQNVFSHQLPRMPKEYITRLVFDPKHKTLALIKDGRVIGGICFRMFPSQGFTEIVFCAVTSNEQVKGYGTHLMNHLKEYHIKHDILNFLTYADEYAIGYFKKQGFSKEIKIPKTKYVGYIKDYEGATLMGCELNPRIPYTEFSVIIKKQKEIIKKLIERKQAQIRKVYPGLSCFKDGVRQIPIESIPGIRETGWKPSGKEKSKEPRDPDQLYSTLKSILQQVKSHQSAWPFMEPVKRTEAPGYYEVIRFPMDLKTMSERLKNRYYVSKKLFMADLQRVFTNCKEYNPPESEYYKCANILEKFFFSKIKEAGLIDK

in vitro [1] = assay: in vitro; set-up: species or system CCD841, HEK293; conditions: human, hb2 cells, read-out: HB-2 Cells Viability (%)
in vitro [2] = assay: in vitro; set-up: species or system HB2, HEK293; conditions: human, ccd841 cells
in vitro [3] = assay: in vitro; set-up: species or system HB2, CCD841; conditions: human, hek293 cells

Structure (SMILES)	BSA (BSA)	NNMT (NNMT (hNNMT))	NUDT7 (NUDT7)	OTUB2 (OTUB2 (OTUB2A))	PCAF (PCAF)	viability at 48 h, 10 µM (in vitro [1])	viability at 48 h, 10 µM (in vitro [2])	viability at 48 h, 10 µM (in vitro [3])
Cc1ccccc1C(C)NC(=O)CCl (centres unmarked) [PCM-0102390]	0	0.26	0.1	0.26	0	92.8%	71.4%	75.8%
C=CC(=O)N1CCC(CN)CC1.Cl [PCM-0102467]	0	0	0	0	0	95.4%	105%	91%
Cc1cc(Cl)ccc1NC(=O)CCl [PCM-0102214]	0	0.3	0.08	0.39	0	44.6%	67.9%	5.5%
O=C(CCl)Nc1ccnn1C1CCCC1 [PCM-0102336]	0	0	0	0.19	0	41.3%	60.4%	7.7%
Cc1csc(CC(=O)NNC(=O)CCl)n1.Cl [PCM-0102095]	0	0	0	0.51	0	93.3%	79%	81.9%
COC(=O)c1c(NC(=O)CCl)sc2c1CCC(C)C2 (centres unmarked) [PCM-0102418]	0	0.8	0.12	0	0	40.8%	88.6%	56.4%
N#CCc1ccc(NC(=O)CCl)cc1 [PCM-0102148]	0	0.27	0.1	0.43	0	11.8%	32.2%	2.1%
CC(NC(=O)CCl)c1ccccc1 (centres unmarked) [PCM-0102128]	0	0	0.13	0.42	0	84.4%	85.5%	84.3%
COc1ccc(NC(=O)CCl)cc1 [PCM-0102156]	0	0.25	0	0.52	0	24.7%	42.7%	2.4%
CC(C)c1cccc(NC(=O)CCl)c1 [PCM-0102429]	0	0.52	0.1	0.23	0	17.7%	57.3%	17.7%
O=C(CCl)N1CCN(S(=O)(=O)c2ccccc2F)CC1 [PCM-0102281]	0	0	0.14	0	0	7.1%	62.6%	9.5%

Further lines, with some results ahead:

BSA (BSA)	NNMT (NNMT (hNNMT))	NUDT7 (NUDT7)	OTUB2 (OTUB2 (OTUB2A))	PCAF (PCAF)	Structure (SMILES)	viability at 48 h, 10 µM (in vitro [1])	viability at 48 h, 10 µM (in vitro [2])	viability at 48 h, 10 µM (in vitro [3])
0	0	0	0	0	C=CC(=O)N1CCC2(CCN(C)C2=O)CC1 [PCM-0102475]	94.8%	100%	85.3%
0	0.13	0	0.07	0	C=CC(=O)N1CCCC(Oc2ncccc2F)C1 (centres unmarked) [PCM-0102725]	108%	109%	80.3%
0	0	0	0	0	O=C(CCl)N1CCOCC1 [PCM-0102749]	98.7%	109%	97.6%
0	0	0	0	0	C=CC(=O)N1CC(c2ccccc2)C2COCCC21 (centres unmarked) [PCM-0102687]	103%	105%	114%
0	0	0	0	0	O=C(CCl)Nc1cccc(C(=O)N2CCSCC2)c1 [PCM-0103072]	34.5%	55.2%	7.8%
0	0	0	0.16	0	CS(=O)(=O)c1ccc(F)c(NC(=O)CCl)c1 [PCM-0103018]	57.6%	53.6%	24.3%
0	0	0	0	0	C=CC(=O)Nc1cccc(C(F)(F)F)c1 [PCM-0102573]	103%	105%	108%
0	0	0	0.3	0	Cc1ccccc1CC(=O)NNC(=O)CCl [PCM-0102829]	90.9%	83.9%	104%
0	0	0	0.18	0	C=CC(=O)N1CCCn2c(cc3ccccc32)C1 [PCM-0102730]	104%	92.2%	85%
0	0	0	0	0	C=CC(=O)N(C)C1CCCc2nc(CC)sc21 (centres unmarked) [PCM-0102483]	98.1%	103%	97.3%
0	0	0	0.3	0	O=C(CCl)Nc1ccon1 [PCM-0103077]	77.3%	61.1%	64.8%
0	0	0	0	0	C=CC(=O)N1CCN(C2CCCN(C3CCOCC3)C2=O)CC1 (centres unmarked) [PCM-0102886]	106%	105%	104%
0	0	0	0	0	Cl.O=C(CCl)N1CCN(Cc2ccco2)CC1 [PCM-0103006]	88.6%	85%	65.7%
0	0	0	0	0	C=CC(=O)N1CCc2sccc2C1c1cccs1 (centres unmarked) [PCM-0102640]	97.9%	115%	98.7%
0	0	0	0	0	CC1(C)CCCN1C(=O)CCl [PCM-0103060]	104%	92.4%	74.5%
0	0	0	0.08	0	C=CC(=O)NCC1(O)CCCC(C(F)(F)F)C1 (centres unmarked) [PCM-0102720]	93.2%	107%	106%
0	0.61	0	0	0	O=C(CCl)N1CCc2ccc([N+](=O)[O-])cc21 [PCM-0102777]	1.7%	2.6%	17.9%
